The data set can be described thus: Brain homogenate binding. Format: in vitro ADME. The note with it: pH 7.4; rat brain homogenate; read-out: fu,brain. How it is done:
Plasma protein binding and Brain homogenate binding: Determination of fraction unbound (f u) in plasma was conducted in vitro via equilibrium dialysis using HTDialysis (HTD) membrane plates. The top half of the plate was filled with 100 uL of Dubelco’s Phosphate Buffered Saline, pH 7.4 (DPBS). Compounds were diluted into plasma from each species (5 µM final concentration), which was aliquoted in triplicate to the ‘bottom half’ of the prepared HTD plate wells. The HTD plate was sealed and incubated for 6 hours at 37 °C. Following incubation, each well (both top and bottom halves) were transferred (20 µL) to the corresponding wells of a 96-shallow-well (V-bottom) plate. The daughter plates were then matrix-matched (DPBS side wells received equal volume of plasma, and plasma side wells received equal volume of DPBS), and extraction solution (120 µL; acetonitrile containing 50 nM carbamazepine as IS) was added to all wells of both daughter plates to precipitate protein and extract test article. The plates were then sealed and centrifuged (3500 rcf) for 10 minutes at ambient temperature. […]
The unbound fraction (f u) was calculated following the equation below, and mean values for each species were calculated from 3 replicates.
A similar approach was used to determine the degree of brain homogenate binding, which employed the same methodology and procedure with the following modifications: 1) a final compound concentration of 1 μM was used, 2) naïve rat brains were homogenized in DPBS (1:3 composition of brain: DPBS, w/w) using a Mini-Bead Beater™ machine in order to obtain brain homogenate, which was then treated in the same manner as the plasma samples in the previously described plasma protein binding assay. Fraction unbound for both plasma and brain samples was determined using Equation 4. […]
The diluted fraction unbound (fu2) in brain was calculated in the same manner by using brain homogenate rather than plasma. Undiluted fraction unbound for the brain was calculated using […]

For `Cn1cc2c(-c3cc(F)c(CN4Cc5ncccc5C4=O)c(F)c3)cccc2n1` [compound 1], the fraction unbound at 6 h, 1 µM turned out to be 0.04.

On to `[2H]C1([2H])c2ncccc2C(=O)N1Cc1c(F)cc(-c2cccc3nn(C)cc23)cc1F` [compound 3], for which the fraction unbound at 6 h, 1 µM was 0.031.

On to `[2H]C1([2H])c2ncccc2C(=O)N1Cc1c(F)cc(-c2cccc3nn(C([2H])([2H])[2H])cc23)cc1F` [compound 5], for which the fraction unbound at 6 h, 1 µM came to 0.036.

Source of the values: PMC12006963, “Application of Deuterium in an M1 Positive Allosteric Modulator Back-Up Program: The Discovery of VU6045422” (ACS Chemical Neuroscience, 2025).
